The source of these data is paper PMC8745332, “Synthesis, Molecular Docking and Biological Characterization of Pyrazine Linked 2-Aminobenzamides as New Class I Selective Histone Deacetylase (HDAC) Inhibitors with Anti-Leukemic Activity” (International Journal of Molecular Sciences, 2021).

Data set [1] concerns the target T1, human HDAC1 (Homo sapiens, UniProt Q13547).
T1 construct: purchased ENZO Life Sciences AG (Lausen, CH)
Description: In vitro HDAC1 inhibition assay, fluorogenic p53 peptide Ac-RHKK(Acetyl)-AMC. Type of data set: biochemical. The note with it: for inhibition at 1 µM: read-out: HDAC1 % inhibition @ 1 µM; for IC50: 10 nM HDAC1, 20 µM substrate, 90 min, 37 °C. Here is the method:
(§1) Recombinant human HDAC1, HDAC2, and HDAC3/NCOR1 were purchased from ENZO Life Sciences AG (Lausen, CH). Recombinant human HDAC 4, HDAC5, HDAC7, HDAC9 and HDAC11 were produced by Barinka lab in Prague, as described before. Recombinant human HDAC8 was produced by Romier et al. (IGBMC, Univ. Strasbourg), as described in [55].
(§2) The in vitro testing on recombinant HDACs 1-3 were performed with a fluorogenic peptide derived from p53 (Ac-RHKK(Acetyl)-AMC). The measurements were performed in an assay buffer (50 mM Hepes, 150 mM NaCl, 5 mM MgCl2, 1 mM TCEP and 0.2 mg/mL BSA, pH 7.4 adjusted with NaOH) at 37 °C. Inhibitors at different concentrations were incubated with 10 nM HDAC1, 3 nM HDAC2 or 3 nM HDAC3 (final concentration) for at least 5 min. The reaction was started with the addition of the fluorogenic substrate (20 µM final concentration) and incubated for 30 min for HDAC2 and HDAC3 and 90 min for HDAC1. The reaction was stopped with a solution of 1 mg/mL trypsin and 20 µM SAHA in 1 mM HCl and incubated for 1 h at 37 °C. […] The received fluorescence intensities were normalized with uninhibited reaction as 100% and the reaction without enzyme as 0%. A nonlinear regression analysis was done to determine the IC50 value.

Data set [2] deals with T2, human HDAC2 (Homo sapiens, UniProt Q92769).
T2 construct: purchased ENZO Life Sciences AG (Lausen, CH)
T2 sequence (Q92769 whole entry): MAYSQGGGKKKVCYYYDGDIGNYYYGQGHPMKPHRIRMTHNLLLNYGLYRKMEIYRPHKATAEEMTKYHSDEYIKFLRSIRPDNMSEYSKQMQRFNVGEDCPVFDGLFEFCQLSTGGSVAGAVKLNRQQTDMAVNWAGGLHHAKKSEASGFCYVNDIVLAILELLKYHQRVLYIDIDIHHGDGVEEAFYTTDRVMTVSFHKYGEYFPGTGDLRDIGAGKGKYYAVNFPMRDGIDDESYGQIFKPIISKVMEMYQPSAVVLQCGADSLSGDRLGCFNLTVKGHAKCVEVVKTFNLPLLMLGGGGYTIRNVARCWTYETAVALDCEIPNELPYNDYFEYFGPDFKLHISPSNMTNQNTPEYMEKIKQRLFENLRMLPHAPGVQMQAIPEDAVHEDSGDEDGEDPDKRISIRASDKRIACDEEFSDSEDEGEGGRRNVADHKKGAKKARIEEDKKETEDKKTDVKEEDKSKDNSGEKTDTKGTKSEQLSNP
Put plainly: In vitro HDAC2 inhibition assay, fluorogenic p53 peptide Ac-RHKK(Acetyl)-AMC. Type of data set: biochemical. Conditions: for inhibition at 1 µM: read-out: HDAC2 % inhibition @ 1 µM; for IC50: 3 nM HDAC2, 20 µM substrate, 30 min, 37 °C. The protocol: as §1, §2

For data set [3], the target named is T3, human HDAC3/NCOR1 (Homo sapiens, UniProt O15379).
T3 construct: purchased ENZO Life Sciences AG (Lausen, CH)
T3 sequence (O15379 whole entry): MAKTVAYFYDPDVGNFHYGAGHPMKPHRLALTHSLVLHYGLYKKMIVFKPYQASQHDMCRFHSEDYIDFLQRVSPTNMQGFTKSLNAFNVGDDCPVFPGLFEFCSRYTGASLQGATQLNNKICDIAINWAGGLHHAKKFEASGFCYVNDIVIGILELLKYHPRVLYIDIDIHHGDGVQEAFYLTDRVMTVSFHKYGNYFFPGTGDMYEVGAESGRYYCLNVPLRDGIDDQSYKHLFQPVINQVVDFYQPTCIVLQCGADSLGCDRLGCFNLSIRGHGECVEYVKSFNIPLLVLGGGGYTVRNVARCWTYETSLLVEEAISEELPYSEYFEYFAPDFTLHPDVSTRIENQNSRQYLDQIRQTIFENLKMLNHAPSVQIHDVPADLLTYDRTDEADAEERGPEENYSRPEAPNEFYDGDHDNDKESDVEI
T3 sequence (O75376 395-489 partner limits assumed): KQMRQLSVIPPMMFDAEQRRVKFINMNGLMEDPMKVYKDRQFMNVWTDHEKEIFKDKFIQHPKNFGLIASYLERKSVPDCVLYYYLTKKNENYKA
Description: In vitro HDAC3 inhibition assay, fluorogenic p53 peptide Ac-RHKK(Acetyl)-AMC. In kind it is biochemical. The note with it: for inhibition at 1 µM: read-out: HDAC3 % inhibition @ 1 µM; for IC50: 3 nM HDAC3, 20 µM substrate, 30 min, 37 °C. The protocol:
as §1, §2

Data set [4] in a line: in vitro. The note with it: human, HEK293 cells.
Description: The cells were incubated for 48 h with the HDACi at a concentration of 50 µM, and cell viability was determined by the Alamar Blue assay.
To determine the cytotoxicity of the developed compounds on the human epithelial kidney, cell line HEK293 was used. HEK293 cells (DSMZ Braunschweig, ACC305) were incubated at 37 °C in a humidified incubator with 5% CO2 in Dulbecco’s Modified Eagle Medium (DMEM) supplemented with 10% FCS and 5 mM glutamine. Cells were seeded out at 1.5 x 10^3 cells per well in a 96-well cell culture plate (TPP, Switzerland). The compounds to be tested were added immediately to the medium at 50 µM. After 24 h, Alamar Blue reagent (Invitrogen, CA) was added according to the manufacturer’s instructions and incubated again for 21 h before samples were analyzed. Detection of viable cells which convert the resazurine reagent into the highly fluorescent resorufin was performed by using a FLUOstarOPTIMA microplate reader (BMG Labtec) with the following filter set: Ex 530 nm/Em 590 nm. Measurements were performed in triplicate and data are means with standard deviation <12%.

T1 sequence (Q13547 whole entry): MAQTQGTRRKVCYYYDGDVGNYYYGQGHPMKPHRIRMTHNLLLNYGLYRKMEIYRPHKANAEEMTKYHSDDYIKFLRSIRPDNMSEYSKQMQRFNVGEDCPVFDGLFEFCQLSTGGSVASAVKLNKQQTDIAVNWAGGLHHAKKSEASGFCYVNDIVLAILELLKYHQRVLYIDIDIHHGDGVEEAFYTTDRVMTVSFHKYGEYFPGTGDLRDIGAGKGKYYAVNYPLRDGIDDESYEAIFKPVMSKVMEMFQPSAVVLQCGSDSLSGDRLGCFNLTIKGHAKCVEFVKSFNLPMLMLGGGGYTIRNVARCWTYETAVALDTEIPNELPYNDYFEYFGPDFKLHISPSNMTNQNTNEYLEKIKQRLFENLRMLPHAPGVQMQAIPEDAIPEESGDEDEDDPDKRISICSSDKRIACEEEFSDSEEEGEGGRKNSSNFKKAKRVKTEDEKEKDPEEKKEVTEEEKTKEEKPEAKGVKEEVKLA

Consider `Cc1ccc(NC(=O)c2cnc(N3CCNCC3)cn2)c(N)c1` [27b, N-(2-amino-4-methylphenyl)-5-(piperazin-1-yl)pyrazine-2-carboxamide], for which the inhibition at 1 µM in data set [1], in data set [2] and in data set [3] was 0% each time.

With `Nc1cc(F)c(F)cc1NC(=O)c1cnc(N2CCN(CCc3c[nH]c4ccccc34)CC2)cn1` [19h], the concentration for half-maximal inhibition (IC50) (commonly the concentration needed to halve the response being measured) turned out to be 0.81 ± 0.07 µM in data set [1], 0.74 ± 0.03 µM in data set [2] and 0.57 ± 0.02 µM in data set [3]. The viability (usually a read-out of living cells in per cent, often relative to untreated cells) at 48 h, 50 µM in data set [4] was 54.5%.

In the case of `CN1CCN(c2ncc(C(=O)Nc3ccccc3N)cn2)CC1` [19n, N-(2-aminophenyl)-2-(4-methylpiperazin-1-yl)pyrimidine-5-carboxamide], the inhibition (in general, how much of the control response was suppressed) at 1 µM was determined as 5% in data set [1], 7% in data set [2] and 13% in data set [3].

For `CN1CCN(c2cnc(C(=O)Nc3cc(-c4ccccc4F)ccc3N)cn2)CC1` [29d, N-(4-amino-2’-fluoro-[1,1’-biphenyl]-3-yl)-5-(4-methylpiperazin-1-yl)pyrazine-2-carboxamide], the concentration for half-maximal inhibition (IC50) in data set [1] was 0.18 ± 0.01 µM; in data set [2], 0.26 ± 0.07 µM; in data set [3], 12 ± 1 µM. This compound gave a viability at 48 h, 50 µM in data set [4] of 54%.

Regarding `CN1CCN(c2cnc(C(=O)Nc3ccccc3N)cn2)CC1` [19o, N-(2-aminophenyl)-5-(4-methylpiperazin-1-yl)pyrazine-2-carboxamide], the inhibition at 1 µM in data set [1] is 27%; in data set [2], 15%; in data set [3] it was 30%.

For `Nc1ccc(C(F)(F)F)cc1NC(=O)c1cnc(N2CCNCC2)cn1` [27a, N-(2-amino-5-(trifluoromethyl)phenyl)-5-(piperazin-1-yl)pyrazine-2-carboxamide], the inhibition at 1 µM in data set [1], in data set [2] and in data set [3] was 0% in each case.

As for `Cn1cc(CCN2CCN(c3cnc(C(=O)Nc4cc(F)ccc4N)cn3)CC2)c2ccccc21` [23c, N-(2-Amino-5-fluorophenyl)-5-(4-(2-(1-methyl-1H-indol-3-yl)ethyl)piperazin-1-yl)pyrazine-2-carboxamide], the 50% inhibitory concentration (IC50) in data set [1] was found to be 0.33 ± 0.02 µM; in data set [2], 1.37 ± 0.08 µM; in data set [3], 0.59 ± 0.04 µM. The compound further had a viability at 48 h, 50 µM in data set [4] of 55.7%.

With `Nc1cc(Cl)ccc1NC(=O)c1cnc(N2CCNCC2)cn1` [25a, N-(2-amino-4-chlorophenyl)-5-(piperazin-1-yl)pyrazine-2-carboxamide], the inhibition at 1 µM in data set [1] and in data set [2] was 0% throughout. The same compound yielded an IC50 in data set [3] of 8.7 ± 0.4 µM.

For the compound `COc1ccc(NC(=O)c2cnc(N3CCNCC3)cn2)c(N)c1` [27c, N-(2-amino-4-methoxyphenyl)-5-(piperazin-1-yl)pyrazine-2-carboxamide], the half-maximal inhibitory concentration (IC50) in data set [1] stood at 20 ± 1 µM; in data set [2] it was 14 ± 2 µM; in data set [3], 14 ± 1 µM.

As to `Nc1ccc(-c2ccc(F)cc2)cc1NC(=O)c1cnc(N2CCNCC2)cn1` [29c, N-(4-amino-4’-fluoro-[1,1’-biphenyl]-3-yl)-5-(piperazin-1-yl)pyrazine-2-carbox-amide], the figures for the 50% inhibitory concentration (IC50) in data set [1], in data set [2] and in data set [3] were 0.16 ± 0.03 µM, 0.34 ± 0.01 µM and 6.7 ± 0.5 µM, respectively. In addition, in data set [4], the viability at 48 h, 50 µM came out at 2.2%.

As for `Cn1cc(CN2CCN(c3cnc(C(=O)Nc4cc(F)c(F)cc4N)cn3)CC2)c2ccccc21` [19l], the values for the half-inhibitory concentration (IC50) in data set [1], in data set [2] and in data set [3] were 0.29 ± 0.03 µM, 0.56 ± 0.02 µM and 0.81 ± 0.05 µM, respectively. In data set [4], this compound had a viability at 48 h, 50 µM of 20.1%.

Consider `Nc1cc(Cl)ccc1NC(=O)c1cnc(N2CCN(CCc3c[nH]c4ccccc34)CC2)cn1` [19i, 5-(4-(2-(1H-indol-3-yl)ethyl)piperazin-1-yl)-N-(2-amino-4-chlorophenyl)pyrazine-2-carboxamide], for which the IC50 was found to be 3 ± 0.2 µM in data set [1], 2.7 ± 0.2 µM in data set [2] and 1.9 ± 0.1 µM in data set [3]. Also, in data set [4], the viability at 48 h, 50 µM was 47.5%.
